In ChEMBL document CHEMBL1629561, “Inhibition of Bacillus anthracis spore outgrowth by nisin” (Antimicrob Agents Chemother, 2008):
The source made the active and inactive calls. The calls are words filed in the database; no cut-off is given here.

Legend:
Bacillus anthracis [1] = experiment: Antibacterial activity against Bacillus anthracis spores assessed as reduction in membrane potential at 0.1 uM; assay type: functional, organism-based
Bacillus anthracis [2] = experiment: Antibacterial activity against Bacillus anthracis spores assessed as reduction in membrane potential at 1 uM; assay type: functional, organism-based
Bacillus anthracis [3] = experiment: Antibacterial activity against Bacillus anthracis spores assessed as inhibition of growth of replicating vegetative bacteria at 1 uM after 5 hrs; assay type: functional, organism-based
Bacillus anthracis [4] = experiment: Antibacterial activity against Bacillus anthracis spores assessed as loss of membrane integrity at 1 uM by flow cytometry relative to control; assay type: functional, organism-based
Bacillus anthracis [5] = experiment: Antibacterial activity against Bacillus anthracis spores assessed as loss of membrane integrity at 0.01 uM by flow cytometry relative to control; assay type: functional, organism-based
Bacillus anthracis [6] = experiment: Antibacterial activity against Bacillus anthracis spores assessed as loss of membrane integrity at 10 uM by flow cytometry relative to control; assay type: functional, organism-based
Bacillus anthracis [7] = experiment: Antibacterial activity against Bacillus anthracis spores assessed as reduction in membrane potential at 10 uM; assay type: functional, organism-based
Bacillus anthracis [8] = experiment: Antibacterial activity against Bacillus anthracis spores assessed as loss of membrane integrity at 0.1 uM by flow cytometry relative to control; assay type: functional, organism-based
Bacillus anthracis [9] = experiment: Antibacterial activity against Bacillus anthracis spores assessed as reduction in membrane potential at 0.01 uM; assay type: functional, organism-based
Bacillus anthracis [10] = experiment: Antibacterial activity against Bacillus anthracis spores assessed as inhibition of growth of replicating vegetative bacteria at 1 uM; assay type: functional, organism-based
Bacillus anthracis [11] = experiment: Antibacterial activity against Bacillus anthracis spores assessed as inhibition of growth of replicating vegetative bacteria at 10 uM; assay type: functional, organism-based
Bacillus anthracis [12] = experiment: Antibacterial activity against Bacillus anthracis spores assessed as reduction in membrane potential at 10 uM after 5 hrs by flow cytometry; assay type: functional, organism-based
Bacillus anthracis [13] = experiment: Antibacterial activity against Bacillus anthracis spores assessed as loss of membrane integrity at 100 uM by flow cytometry relative to control; assay type: functional, organism-based
Bacillus anthracis [14] = experiment: Antibacterial activity against Bacillus anthracis spores assessed as inhibition of spore germination at 10 uM preincubated for 5 mins with germinating medium measured after 18 hrs; assay type: functional, organism-based
Bacillus anthracis [15] = experiment: Antibacterial activity against Bacillus anthracis spores assessed as reduction in membrane potential at 100 uM after 5 hrs by flow cytometry; assay type: functional, organism-based
Bacillus anthracis [16] = experiment: Antibacterial activity against Bacillus anthracis spores assessed as loss of exosporium by transmission electron microscopy; assay type: functional, organism-based
Bacillus anthracis [17] = experiment: Antibacterial activity against Bacillus anthracis spores assessed as inhibition of growth of replicating vegetative bacteria at 0.1 uM after 50 minutes; assay type: functional, organism-based
Bacillus anthracis [18] = experiment: Antibacterial activity against Bacillus anthracis assessed as effect on spore germination initiation after 5 mins by spectroscopy in presence of 0.1 M MOPS nongerminating condition; assay type: functional, organism-based
Bacillus anthracis [19] = experiment: Antibacterial activity against Bacillus anthracis spores assessed as reduction in membrane potential at 1 uM after 10 hrs by flow cytometry; assay type: functional, organism-based
Bacillus anthracis [20] = experiment: Antibacterial activity against Bacillus anthracis spores assessed as loss of spore coat by transmission electron microscopy; assay type: functional, organism-based
Bacillus anthracis [21] = experiment: Antibacterial activity against Bacillus anthracis assessed as effect on germination initiation-associated loss in spore heat resistance after 5 mins by spectroscopy; assay type: functional
Bacillus anthracis [22] = experiment: Antibacterial activity against Bacillus anthracis spores assessed as reduction in membrane potential at 1 uM after 5 hrs by flow cytometry; assay type: functional, organism-based
Bacillus anthracis [23] = experiment: Antibacterial activity against Bacillus anthracis spores assessed as reduction in membrane potential at 0.1 uM after 10 hrs by flow cytometry; assay type: functional, organism-based
Bacillus anthracis [24] = experiment: Antibacterial activity against Bacillus anthracis spores assessed as reduction in membrane potential at 10 uM after 10 hrs by flow cytometry; assay type: functional, organism-based
Bacillus anthracis [25] = experiment: Antibacterial activity against Bacillus anthracis spores assessed as reduction in membrane potential at 100 uM after 10 hrs by flow cytometry; assay type: functional, organism-based
Bacillus anthracis [26] = experiment: Antibacterial activity against Bacillus anthracis spores assessed as reduction in membrane potential at 0.1 uM after 5 hrs by flow cytometry; assay type: functional, organism-based
Bacillus anthracis [27] = experiment: Antibacterial activity against Bacillus anthracis spores assessed as loss of spore cortex by transmission electron microscopy; assay type: functional, organism-based
Bacillus anthracis [28] = experiment: Antibacterial activity against Bacillus anthracis spores assessed as decrease in spore germination initiation at 10 uM preincubated with germination medium measured after 18 hrs; assay type: functional, organism-based
Bacillus anthracis [29] = experiment: Antibacterial activity against Bacillus anthracis spores assessed as inhibition of growth of replicating vegetative bacteria at 100 uM; assay type: functional, organism-based
Bacillus anthracis [30] = experiment: Antibacterial activity against Bacillus anthracis assessed as effect on hydration of spore structure-associated loss in refractility after 10 min by spectroscopy; assay type: functional

## O=C(O)c1cn(C2CC2)c2cc(N3CCNCC3)c(F)cc2c1=O
Bacillus anthracis [1]
  Activity: inactive
Bacillus anthracis [2]
  Activity: inactive
Bacillus anthracis [3]
  inhibition: inactive
Bacillus anthracis [4]
  Activity: Active
Bacillus anthracis [5]
  Activity: Active
Bacillus anthracis [6]
  Activity: Active
Bacillus anthracis [7]
  Activity: inactive
Bacillus anthracis [8]
  Activity: Active
Bacillus anthracis [9]
  Activity: inactive

## C=C(NC(=O)[C@@H](NC(=O)[C@H](Cc1cnc[nH]1)NC(=O)[C@@H](NC(=O)[C@H](CO)NC(=O)[C@@H]1CS[C@@H](C)[C@H]2NC(=O)C(=C)NC(=O)[C@H](NC(=O)[C@H](CCCCN)NC(=O)[C@H](CCSC)NC(=O)[C@H](CC(N)=O)NC(=O)[C@@H]3CS[C@@H](C)[C@@H](NC(=O)[C@H](CCCNN)NC(=O)[C@@H]4CS[C@@H](C)[C@@H](NC(=O)[C@@H]5CSC[C@@H](NC(=O)/C(=C\C)NC(=O)[C@@H](N)[C@@H](C)CC)C(=O)N[C@@H]([C@@H](C)CC)C(=O)NC(=C)C(=O)N[C@@H]([C@@H](C)CC)C(=O)N5)C(=O)N5CCC[C@H]5C(=O)NCC(=O)N4)C(=O)NCC(=O)N[C@@H](C)C(=O)N[C@@H]([C@@H](C)CC)C(=O)N[C@@H](CCSC)C(=O)NCC(=O)N3)[C@H](C)SC[C@H](NC2=O)C(=O)N[C@H](Cc2cnc[nH]2)C(=O)N1)[C@@H](C)CC)C(C)C)C(=O)N[C@@H](CCCCN)C(=O)O [NISIN]
Bacillus anthracis [10]
  growth inhibition (GI): Active
Bacillus anthracis [11]
  growth inhibition (GI): Active
Bacillus anthracis [12]
  Activity: Active
Bacillus anthracis [13]
  Activity: Active
Bacillus anthracis [14]
  inhibition: Active
Bacillus anthracis [15]
  Activity: Active
Bacillus anthracis [16]
  Activity: inactive
Bacillus anthracis [17]
  growth inhibition (GI): Active
Bacillus anthracis [18]
  Activity: inactive
Bacillus anthracis [19]
  Activity: Active
Bacillus anthracis [20]
  Activity: inactive
Bacillus anthracis [21]
  Activity: >80%
Bacillus anthracis [22]
  Activity: Active
Bacillus anthracis [4]
  Activity: Active
Bacillus anthracis [23]
  inhibition: inactive
Bacillus anthracis [24]
  Activity: Active
Bacillus anthracis [25]
  Activity: Active
Bacillus anthracis [6]
  Activity: Active
Bacillus anthracis [26]
  inhibition: inactive
Bacillus anthracis [27]
  Activity: inactive
Bacillus anthracis [8]
  Activity: Active
Bacillus anthracis [28]
  inhibition: Active
Bacillus anthracis [29]
  growth inhibition (GI): Active
Bacillus anthracis [30]
  Activity: >65%
